In US20120114636A1, “LOW MOLECULAR WEIGHT CYCLIN E (LMW-E) AS A BIOMARKER FOR PERSONALIZATION OF CANCER THERAPIES” (The Board of Regents of the University of Texas System, priority 2009, published 2012):
Several values for one entry are separate records, joined by “and”; a condition that tells them apart may be missing. Identical values can stand only once.

Key:
Assay type in all cases: cell-based, human
MCF-7/Ac1 cells [1] = test: Western blot of CDK2, phospho-CDK2, cyclin E, pRb; conditions: 25 nM AD
Procedure: FIG. 28. Effect of increasing concentrations of letrozole in the presence of 25 nM AD on CDK2 kinase activity, activated CDK2 and Rb phosphorylation of MCF7/Ac1 human breast cancer cells. MCF-7/Ac1 cells were treated with the indicated concentrations of letrozole and AD for 3 days. CDK2 kinase assays were performed by immunoprecipitating equal amounts of cell lysate (250 μg) with monoclonal antibodies to CDK2 (D12, sc-6248) coupled to protein G beads, using histone H1 as substrate. […] The same cell lysates were subjected to western blot analysis (50 μg of protein) with the indicated antibodies.
(§1) Western blot analysis. Cell lysates were prepared and subjected to western blot analysis as described previously (Akli et al., 2004). Briefly, 50 μg of protein were subjected to electrophoresis on SDS-PAGE and transferred to Immobilon P overnight at 4° C. at […] constant voltage. The blots were blocked overnight at 4° C. in BLOTTO [5% nonfat dried milk in 20 mM Tris, 137 mM NaCl, and 0.05% Tween (pH 7.6)]. After being washed, the blots were incubated in primary antibodies for 3 h. Primary antibodies used were cyclin E (HE-12; Santa Cruz Biotechnology), p21 (0P64; Oncogene Research Products, Boston, Mass.), p27 (K25020; BD Biosciences-Transduction Laboratories, Lexington, Ky.), cyclin-dependent kinase 2 (CDK2; Transduction Laboratories), and actin (Chemicon International, Inc., Temecula, Calif.). Blots were then incubated with goat anti-mouse or anti-rabbit immunoglobulin-horseradish peroxidase conjugate at a dilution of 1:5000 in BLOTTO for 1 h and finally washed and developed by using the Renaissance chemiluminescence system as directed by the manufacturer (Perkin-Elmer Life Sciences, Inc., Boston, Mass.). Western blots were quantitated by densitometric analysis using IPLab Gel software (Scientific Image Processing, Vienna, Va.). Densitometric values of actin were used to standardize for equal protein loading. These values were introduced into the software Graph-Pad Prism version 4.0 (GraphPad Software, Inc., San Diego, Calif.) for statistical analysis.
(§2) MCF-7/Ac1 cells were treated with the indicated concentrations of letrozole and AD for 3 days. Cyclin E kinase assays were performed by immunoprecipitating equal amounts of cell lysate (250 μg) with monoclonal antibodies to cyclin E coupled to protein A beads, using histone H1 as substrate. […] The same cell lysates were subjected to western blot analysis (50 μg of protein) with the indicated antibodies. […] The same cell lysates were first immunoprecipitated with cyclin E followed by western blot for p21 and p27. […] The same cell lysates were first immunoprecipitated with CDK2 followed by western blot for p21 and p27. The levels of proteins were measured by densitometric scanning of the corresponding bands and normalized using actin values. The values indicated at the bottom were compared to the values obtained with untreated cells.

[2] = test system: CDK2 protein in MCF-7/Ac1 cells; test: Western blot of CDK2 protein levels in adenovirus-infected cells; conditions: 25 nM AD, uninfected and LacZ infected cells
Procedure: as §1
MCF-7/Ac1 cells were cultured in IMEM with 10% charcoal-stripped serum medium (CSSM) without phenol red and with 600 μg/ml of G418 for 4 days before plating. […] Cells were then infected with the indicated adenoviruses (at 4000 m.o.i.) 24 hours before drug treatment.

MCF-7/Ac1 cells [3] = test: Cell growth by cell counting, AD-stimulated cells; conditions: 3 days
Procedure: Cell growth. The effects of the aromatase inhibitors on MCF7/Ac1 cells growth were examined by counting the cells at the indicated time. The cells were detached from their flask using trypsin and counted using a Coulter counter machine.
To examine the effects of the three different aromatase inhibitors on the proliferation of MCF-7/Ac1 cells, cells were cultured in estrogen deprived, charcoal stripped serum media (CSSM). The response of the cells to 25 nM of androstenedione (AD) alone or AD plus one of the 3 aromatase inhibitors letrozole (FIG. 22A), anastrozole (FIG. 22B), and exemestane (FIG. 22C) was measured after 3 days of treatment. Cells maintained in CSSM were used as controls.
FIGS. 22A-22C show the effect of aromatase inhibitor treatment on proliferative response and cell cycle distribution of MCF-7/Ac1 cells. Cells were cultured in IMEM with 10% charcoal-stripped serum medium (CSSM) without phenol red and with 600 μg/ml of G418 for 4 days before plating. Cells (100,000) were seeded in 100 mm dishes and, 24 hrs later, were exposed for 3 days to the specific treatment. […] CSSM, untreated cells cultured in charcoal-stripped serum medium without phenol red and with 600 μg/ml of G418.

MCF-7/Ac1 cells [4] = test: Cell cycle analysis by flow cytometry (PI)
Procedure: Cell cycle analysis. MCF-7/Ac1 cells were cultured in estrogen-deprived media with or without 25 nM 4-androstenedione, and treated with different concentrations of aromatase inhibitors. Untreated and drug treated cells were collected 72 hours later for flow cytometry and lysates were prepared for western blot and kinase assays.
Flow cytometry analysis. Cells were pelleted and resuspended in 1.5 ml of PBS, then fixed in 3.5 ml of 95% ethanol overnight at −20° C. After being washed, the pellets were resuspended in a solution of PBS containing 10 μg/ml propidium iodide, 20 μg/ml RNase A, 0.5% Tween 20, and 0.5% BSA and incubated at 37° C. for 30 min. The profiles of cells in the G0-G1, S, and G2-M phases of the cell cycle were analyzed at the M. D. Anderson Cancer Center Cytometry Core Facility on a FACS Caliber machine equipped with Cellquest or ModFit software.
FIGS. 22A-22C show the effect of aromatase inhibitor treatment on proliferative response and cell cycle distribution of MCF-7/Ac1 cells. Cells were cultured in IMEM with 10% charcoal-stripped serum medium (CSSM) without phenol red and with 600 μg/ml of G418 for 4 days before plating. Cells (100,000) were seeded in 100 mm dishes and, 24 hrs later, were exposed for 3 days to the specific treatment. […] Cell growth is expressed as the percentage of the cells compared with the control cells (25 nM AD treated cells, 575,000 cells at day 3). Columns, mean of two to three experiments, each in triplicates; bars, S.D. *, P<0.05, when compared to cells only treated with 25 nM AD; n.s, not significant. CSSM, untreated cells cultured in charcoal-stripped serum medium without phenol red and with 600 μg/ml of G418.

[5] = test system: cyclin E-associated kinase activity in MCF-7/Ac1 cells; test: Cyclin E-associated kinase assay (histone H1); conditions: 25 nM AD, 3 days
Procedure: (§3) Immunoprecipitation and Immunoblotting. Two hundred fifty μg of cell extracts were used per immunoprecipitation with polyclonal antibody to cyclin E or polyclonal antibody to CDK2, coupled to protein A beads. After being washed, the immunoprecipitates were subjected to electrophoresis in 13% gels, transferred to Immobolin P, blocked, and incubated with the indicated antibodies as already described.
as §2

MCF-7/Ac1 cells [6] = test: Sequential AD/letrozole then roscovitine treatment: cell number and CDK2 western blot; conditions: additional two days in medium or medium plus DMSO
Procedure: Medium alone or medium plus DMSO were used as controls. A schematic of the treatment strategy is depicted in FIG. 25A. At the conclusion of the treatment, cells were enumerated and subjected to western blot analysis with CDK2 (total) and phospho-CDK2 antibodies.
Cells were then infected with the indicated adenoviruses (at 4000 m.o.i.) 24 hours before drug treatment.

[7] = test system: cyclin E and CDK2 complexes in MCF-7/Ac1 cells; test: Immunoprecipitation of cyclin E or CDK2 followed by western blot for p21 and p27; conditions: 25 nM AD
Procedure: as §3, §2

BT474 cells = test: High throughput clonogenic assay, trastuzumab and roscovitine; conditions: agents alone or in combination
Procedure: (§4) FIGS. 27A-27B. […] FIG. 27B. […] Isobologram analysis and graphs were obtained using CalcuSyn software, which performs drug dose—effect calculation using the median effect method. Experiments were performed in triplicate and representative data are shown.

SKBr3 cells = test: as above; conditions: agents alone or in combination
Procedure: as §4

MCF-7/Ac1 cells [8] = test: Cell number of adenovirus-infected cells (LacZ, cyclin EL, T1, T2); conditions: 20 uM, uninfected, LacZ or cyclin E-T1 infected cells
Text: LMW cyclin E, but not full-length cyclin E, overexpressing MCF-7/Ac1 cells partially override the letrozole inhibition of AD-induced S-phase entry and AD-induced CDK2 protein levels. Since overexpression of LMW cyclin E deregulates the G1 to S transition, the inventors interrogated the role of full-length and LMW cyclin E in letrozole response. To this end, the inventors examined the sensitivity of cyclin E overexpressing MCF-7/Ac1 cells to the growth inhibitory effect of letrozole using adenoviruses to overexpress full-length and LMW cyclin E (FIGS. 24A-24D). MCF-7/Ac1 cells were cultured in charcoal stripped serum media (CSSM) for 4 days before infecting them with 4000 m.o.i. of either LacZ, full-length cyclin E (cyclin EL) or LMW cyclin E (cyclin E-T1 and cyclin E-T2). Twenty-four hours later, cells were left either untreated, treated with 25 nM AD alone, or treated with 25 nM AD plus 1 μM letrozole for an additional 3 days (FIGS. 24A-24B). Following the treatment, cells were enumerated or subjected to flow cytometry analysis.
MCF-7/Ac1 cells were cultured in IMEM with 10% charcoal-stripped serum medium (CSSM) without phenol red and with 600 μg/ml of G418 for 4 days before plating. Triplicate wells of 6-well plates were then infected with the indicated adenoviruses (at 4000 m.o.i.) 24 hours before drug treatment. Cells were then left untreated (E2W, estrogen withdrawal) or treated with 25 nM AD (AD) or treated with 25 nM AD and 1 μM letrozole (AD+Let) and collected 3 days later for cell number. Cell growth is expressed as the percentage of the cells compared with the control cells (25 nM AD treated cells). […] MCF-7/Ac1 cells were treated as described in A, and collected for flow cytometry analysis. Histograms represent the S-phase fraction expressed as the percentage of the cells in S-phase compared with the control cells (25 nM AD treated cells). […] The same cell lysates as in A and B were subjected to western blot analysis (50 μg of protein) with cyclin E and CDK2 antibodies. The bar graph represents the densitometric values of the phosphorylated CDK2 bands. […] Left, MCF-7/Ac1 cells were cultured in IMEM with 10% charcoal-stripped serum medium (CSSM) without phenol red and with 600 μg/ml of G418 for 4 days before plating. Cells were then infected with the indicated adenoviruses (at 4000 m.o.i.) 24 hours before drug treatment. Cells were then treated with 25 nM AD and 1 μM letrozole and collected 3 days later for cell number. […] Columns, mean of two to three experiments, each in triplicates; bars, S.D.
To directly address this question, MCF-7/Ac1 cells were cultured in charcoal stripped serum media (CSSM) for 4 days before adding medium with no virus or with 4000 m.o.i. of either LacZ, or LMW cyclin E (cyclin E-T1) adenoviruses. 24 hours later, cells were left untreated, treated with 25 nM AD alone, or treated with 25 nM AD plus 1 μM letrozole for 3 days (FIG. 24D). The AD-induced growth of MCF-7/Ac1 cells was inhibited by letrozole by 51% in uninfected cells and by 58% in LacZ infected cells while the growth of cyclin E-T1 infected cells was inhibited by only 20% (FIG. 24D, left).

With `C[C@]12CCC(=O)C=C1CC[C@@H]1[C@@H]2CC[C@]2(C)C(=O)CC[C@@H]12` [AD, androstenedione] the “cyclin E protein levels” value (MCF-7/Ac1 cells [1]) was “not affected”, the “increase in CDK2 protein levels compared to vehicle treated cells” value (MCF-7/Ac1 cells [1]; 3 days) was 2.3 fold and the “increase in phospho-CDK2” value (MCF-7/Ac1 cells [1]; phospho-specific CDK2 antibody) was 3.5 fold. For the same compound, the “increase in total CDK2 protein levels” value [2] was 1.8 fold, the “increase in cell number compared to control cells (CSSM)” value (MCF-7/Ac1 cells [3]; 25 nM AD) was 3.9+/−1.3 fold and the “fraction of cells in S phase” value (MCF-7/Ac1 cells [4]; 25 nM AD alone) was 40.3+/−1.9%. For the same compound, the “increase of fraction of cells in S phase compared to vehicle treated cells” value (MCF-7/Ac1 cells [4]; 25 nM AD alone) was 7.3 fold, the “cells in G0-G1” value (MCF-7/Ac1 cells [4]; 25 nM AD alone (baseline of exemestane comparison)) was 35.1+/−0.8% and the “increase in cyclin E-associated kinase activity compared to vehicle treated cells” value [5] was 1.6 fold. For the same compound, the “increase in AD-induced proliferation” value (MCF-7/Ac1 cells [6]; LMW cyclin E overexpressing cells) was 2.3 fold and 2.8 fold, the “increase in AD-induced proliferation” value (MCF-7/Ac1 cells [6]; LacZ infected cells) was 3.5 fold and the “increase in AD-induced proliferation” value (MCF-7/Ac1 cells [6]; uninfected cells) was 4 fold. The “increase in p21 binding to CDK2” value [7] was 1.5 fold and the “p21 binding to cyclin E” value [7] was “did not affect”.

In the case of `CC(C)(C#N)c1cc(Cn2cncn2)cc(C(C)(C)C#N)c1` [anastrozole], the “inhibition of AD-induced growth” value (MCF-7/Ac1 cells [3]; any of the concentrations tested, with 25 nM AD) is reported as “did not inhibit” and the “effect on cell cycle distribution” value (MCF-7/Ac1 cells [4]; 10 μM, with 25 nM AD) is reported as “more subtle effect”.

In the case of `C=C1C[C@@H]2[C@H](CC[C@]3(C)C(=O)CC[C@@H]23)[C@@]2(C)C=CC(=O)C=C12` [exemestane], the inhibition at 1 µM (MCF-7/Ac1 cells [3]; Homo sapiens, MCF7, 72 h, 1 μM, with 25 nM AD, read-out: inhibition of AD-induced growth) is reported as 25%, the inhibition at 10 µM (MCF-7/Ac1 cells [3]; Homo sapiens, MCF7, 72 h, 10 μM, with 25 nM AD, read-out: inhibition of AD-induced growth) is reported as 42% and the “cells in G0-G1” value (MCF-7/Ac1 cells [4]; 10 μM, with 25 nM AD) is reported as 49.2+/−0.7%. For the same compound, the “cells in S phase” value (MCF-7/Ac1 cells [4]; 10 μM, with 25 nM AD) was 31.7+/−2.5%.

For `CC[C@H](CO)Nc1nc(NCc2ccccc2)c2ncn(C(C)C)c2n1` [roscovitine], the cell viability (BT474 cells) was “dose-dependent reduction in cell viability”, the cell viability (SKBr3 cells) was “dose-dependent reduction in cell viability” and the “inhibition of AD-induced increase in cell number” value (MCF-7/Ac1 cells [8]) was “completely inhibited”.
